Measured values as given in patent US7582681B2, “Synergistic mixtures of 1,2-alkane diols” (Symrise GmbH & Co. KG, priority 2002, dated 2009).
≈ marks a conversion by molar mass, not a printed value.

What was measured:
Assay type in all cases: cell-based
[1] = tested on: Candida albicans ATCC 10231; test: Test for adequate preservation (European Pharmacopea), 1,2-diols and 1,2-diol mixtures in O/W emulsion; details: 3% diol(s) in O/W emulsion
Experimental: (§1) A test for adequate preservation was carried out in accordance with the European Pharmacopea. The test thus consists of the contamination of the formulation, if possible in its final ratio, with a prescribed inoculum of suitable microorganisms, storage of the inoculated formulation at a specific temperature, taking of samples from the vessel at specific intervals and determination of the number of microorganisms in the samples taken in this way. The preserving properties are adequate if, under the conditions of the test, there is a distinct reduction or optionally no increase in the germ count in the inoculated formulations after the prescribed times at the prescribed temperatures. Experimental details of the test procedure are described in the European Pharmacopea (ISBN 3-7692-2768-9; 2001 supplement to the 3rd Edition, page 421-422, chapter 5.1.3). The initial germ count (CFU/g; “0” value) was in the range of 240,000 to 300,000 in the various test series. For the tests for adequate preservation, (a) potentially synergistically active mixtures taken into account and (b), for comparison purposes, the corresponding unmixed 1,2-diols were incorporated in O/W emulsions. […] The variation in the total concentration of 1,2-diols or 1,2-diol mixtures in the O/W emulsions was compensated for by increasing or reducing the water content, so that otherwise identical formulations always comprised 100 parts by weight in total.

[2] = tested on: Pseudomonas aeruginosa ATCC 9027; test: as above; details: 3% diol(s) in O/W emulsion
Experimental: as §1

[3] = tested on: Escherichia coli ATCC 8739; test: as above; details: 3% diol(s) in O/W emulsion
Experimental: as §1

[4] = tested on: Staphylococcus aureus ATCC 6538; test: as above; details: 3% diol(s) in O/W emulsion
Experimental: as §1

[5] = tested on: Epidermophyton floccosum CBS 55384; test: MIC, agar dilution method; details: CBS55384, Mueller-Hinton agar, 18 h at 36° C.
Experimental: Petri dishes 9.0 cm in diameter were charged with 13.5 ml freshly prepared Mueller-Hinton agar (Merck, Ref. 1.05437 or Wilkins-Chalgren agar boullion, Oxoid, Ref. CM 643, supplemented with log agar-agar/liter) kept liquid at 50° C., to which the various concentrations of the diluted samples were added in 10% (V/V)=1.5 ml. Mueller-Hinton agar that contained 3% Tween80 (Merck, Ref. 8.22 187) was used for the test germ Malassezia furfur. In each case 5 ml of the samples were diluted in distilled water and made up to 10 ml. The further test concentrations of the particular dilution series, which were prepared in the form of geometric series, were prepared by progressive 1:2 dilution of this batch with distilled water. […] Two agar plates were poured per test concentration and nutrient medium. After solidification and drying (approx. 1 h at 37° C.), the test plates were inoculated in point form with, in each case, 1 μl of the test germ suspensions listed below. To check purity and identity the bacteria that grow aerobically (Brevibacterium epidermidis, Corynebacterium xerosis, Staphylococcus epidermidis) were [lacuna] on Columbia blood agar (BioMérieux, Ref. 43049). The mould Aspergillus niger, the yeast Candida albicans and the two skin fungi Trichophyton mentagrophytes and Epidermophyton floccosum were cultured on Sabouraud agar (BioMérieux, Ref. 43555). Malassezia furfur was cultured on Sabourad HLT agar with disinhibitors (addition of 3% Tween80: 1%; lecithin: 0.3%; histidine: 0.1%; Merck, Ref. 1.18368). Propionibacterium acnes was cultured on Schaedler agar (BioMérieux, Ref. 43273). Further details on the test germs can be taken from Table 5. For preparation of the other test germ suspensions, the test strains were cultured on the abovementioned solid nutrient medium, harvested using sterile swabs and taken up or diluted in such an amount of Mueller-Hinton broth that the turbidity of the suspensions corresponded to McFarland standard 0.5. All test germ suspensions with the exception of Propionibacterium acnes were diluted again 1:10 with sterile broth and the germ count thereof was determined by the surface method using a Spiralometer (results: see Table 5). The MIC (minimum inhibitory concentration) was regarded as the lowest concentration of active compound at which macroscopically there is no growth. Minimal, barely visible growth or few small individual colonies were evaluated as inhibition.

[6] = tested on: Propionibacterium acnes ATCC 11829; test: MIC, agar dilution method; details: Cutibacterium acnes, ATCC11829, anaerobic, Wilkins-Chalgren agar, 72 h at 30° C.
Experimental: Petri dishes 9.0 cm in diameter were charged with 13.5 ml freshly prepared Mueller-Hinton agar (Merck, Ref. 1.05437 or Wilkins-Chalgren agar boullion, Oxoid, Ref. CM 643, supplemented with log agar-agar/liter) kept liquid at 50° C., to which the various concentrations of the diluted samples were added in 10% (V/V)=1.5 ml. Mueller-Hinton agar that contained 3% Tween80 (Merck, Ref. 8.22 187) was used for the test germ Malassezia furfur. In each case 5 ml of the samples were diluted in distilled water and made up to 10 ml. The further test concentrations of the particular dilution series, which were prepared in the form of geometric series, were prepared by progressive 1:2 dilution of this batch with distilled water. […] Two agar plates were poured per test concentration and nutrient medium. After solidification and drying (approx. 1 h at 37° C.), the test plates were inoculated in point form with, in each case, 1 μl of the test germ suspensions listed below. To check purity and identity the bacteria that grow aerobically (Brevibacterium epidermidis, Corynebacterium xerosis, Staphylococcus epidermidis) were [lacuna] on Columbia blood agar (BioMérieux, Ref. 43049). […] Minimal, barely visible growth or few small individual colonies were evaluated as inhibition.

Structure (SMILES) | germ count C. albicans ([1]; 0′-count (initial germ count)) | germ count C. albicans ([1]; 24 h) | germ count C. albicans ([1]; 48 h) | germ count C. albicans ([1]; 4 d) | germ count C. albicans ([1]; 7 d) | germ count C. albicans ([1]; 14 d) | germ count C. albicans ([1]; 28 d) | germ count Ps. aeruginosa ([2]; 0′-count (initial germ count)) | germ count Ps. aeruginosa ([2]; 24 h) | germ count Ps. aeruginosa ([2]; 48 h) | germ count Ps. aeruginosa ([2]; 4 d) | germ count Ps. aeruginosa ([2]; 7 d) | germ count Ps. aeruginosa ([2]; 14 d) | germ count Ps. aeruginosa ([2]; 28 d) | germ count E. coli ([3]; 0′-count (initial germ count)) | germ count E. coli ([3]; 24 h) | germ count E. coli ([3]; 48 h) | germ count E. coli ([3]; 4 d) | germ count E. coli ([3]; 7 d) | germ count E. coli ([3]; 14 d) | also measured
CCCCC(O)CO (stereo not shown) [HE3, 1,2-hexanediol] | 250,000 CFU/ml | 120,000 CFU/ml | 5,600 CFU/ml | 0 CFU/ml | 0 CFU/ml | 0 CFU/ml | 0 CFU/ml | 290,000 CFU/ml | <100 CFU/ml | <100 CFU/ml | 0 CFU/ml | 0 CFU/ml | 0 CFU/ml | 0 CFU/ml | 300,000 CFU/ml | <100 CFU/ml | <100 CFU/ml | 0 CFU/ml | 0 CFU/ml | 0 CFU/ml | germ count E. coli ([3]; 28 d): 0 CFU/ml; germ count Staph. aureus ([4]; 0′-count (initial germ count)): 240,000 CFU/ml; germ count Staph. aureus ([4]; 24 h): <100 CFU/ml; germ count Staph. aureus ([4]; 48 h): <100 CFU/ml; germ count Staph. aureus ([4]; 7 d): 0 CFU/ml; germ count Staph. aureus ([4]; 14 d): 0 CFU/ml; germ count Staph. aureus ([4]; 28 d): 0 CFU/ml; MIC [5]: 6250 µg/mL (≈ 52.9 mM); MIC [6]: 25000 µg/mL (≈ 212 mM)
CCCCCCC(O)CO (stereo not shown) [OC3, 1,2-octanediol] | 250,000 CFU/ml | 3,200 CFU/ml | <100 CFU/ml | 0 CFU/ml | 0 CFU/ml | 0 CFU/ml | 0 CFU/ml | 290,000 CFU/ml | 0 CFU/ml | 0 CFU/ml | 0 CFU/ml | 0 CFU/ml | 0 CFU/ml | 0 CFU/ml | 300,000 CFU/ml | 0 CFU/ml | 0 CFU/ml | 0 CFU/ml | 0 CFU/ml | 0 CFU/ml | germ count E. coli ([3]; 28 d): 0 CFU/ml; germ count Staph. aureus ([4]; 0′-count (initial germ count)): 240,000 CFU/ml; germ count Staph. aureus ([4]; 24 h): 0 CFU/ml; germ count Staph. aureus ([4]; 48 h): 0 CFU/ml; germ count Staph. aureus ([4]; 7 d): 0 CFU/ml; germ count Staph. aureus ([4]; 14 d): 0 CFU/ml; germ count Staph. aureus ([4]; 28 d): 0 CFU/ml; MIC [5]: 3120 µg/mL (≈ 21.4 mM); MIC [6]: 6250 µg/mL (≈ 42.7 mM)
